In one data set the test system is C6 glioma tumor. The data set is described as follows: Anti-tumor effect in C6 glioma-bearing rats, tumor volume and appearance (Example 28). The format is in vivo, Sprague Dawley (SD) rats. The protocol:
The anti-tumor effect of DP-BFA was evaluated by monitoring tumor volume and appearance in a model system of C6 glioma-bearing rats. Sprague Dawley (SD) rats were inoculated with 2.5×10^5 C6 glioma cells in 5 μl PBS as follows. Rats were mounted into a stereotactic head holder in a flat-skull position. After reflections of the periosteum, a burr hole was preformed with a 1 mm drill in the following coordinates: bregma—1.0, 3.50 mm lateral from the midline on the left side, and at a depth of 3.50 mm. The cell suspension was manually injected at a depth of 3.50 mm using a 10 μl Hamilton syringe.
The pterigo-palatina artery was legated, and the common carotid artery was clamped at the time of infusion.
Five days after the inoculation of the C6 tumor cells, the rats were anesthetized with Ketamin/xylazin (1:1) 0.1 ml/100 grams body weight, perfused with saline and fixed with 4% Formaldehyde solution. Brains were removed and cryoprotected in a sucrose solution for 48 h. The brains were then sliced in coronal section, stained with Haematoxylin-Eosine and underwent pathology evaluation.

Data set [1] deals with blood tumor barrier / blood brain barrier. The data set is described as follows: Unilateral administration in rats with bilateral C6 gliomas, Evans blue staining of brain sections. In kind it is in vivo, SD rats. Conditions: 10 μM 3,12-DEG-HPO4Na; 40 μM 3,12-Na; 25% mannitol; unilateral infusion. The protocol:
FIGS. 2A–C depict Evans blue accumulation in brain sections of rats bearing bilateral gliomas following unilateral administration of a compound as follows: 10 μM 3,12-DEG-HPO4Na (FIG. 2A), 40 μM 3,12-Na (FIG. 2B) or mannitol 25% (FIG. 2C).
Evans Blue and Fluoroscein penetration into gliomas tumors was examined following unilateral infusion into the external carotis artery of either 10 μM 3,12-DEG-HPO4Na (FIG. 2A), 40 μM 3,12-Na BFA (FIG. 2B) or 25% mannitol (FIG. 2C). The relevant compound was infused into rat brains at 9 to 12 days following inoculation of C6 glioma cells as described in Example 23.

Data set [2] deals with blood brain barrier (BBB). The data set is described as follows: Duration of the effect on BBB opening in rat brain. The format is in vivo, Sprague Dawley rats. Conditions: EC50 concentrations of the tested compounds. The text has this:
The effects of DP-BFA on Evans Blue and Fluoroscein extravasation in rat brain were examined at various time points following DP-BFA administration. Various DP-BFA compounds were infused, over a period of 30 seconds, into the external carotid artery of Sprague Dawley rats, following the procedure described above in Example 17. The tested compounds were used at their EC50 concentrations. […] Two compounds, 3,12-PC and 3,12-MEG-PC, both comprising a phosphocholine moiety, have shown D1/2 which was 4 times longer than the other tested 3,12-BFA derivatives, i.e. D1/2 of around 120 min.

Another data set deals with C6 glioma cell line. Description: MTT cytotoxicity, C6 glioma. In kind it is cell-based, rat. Conditions: three days, read-out: EC50 (50% reduction in cell viability). The protocol:
The cytotoxic activity of various phospho-derivatives of branched-chain fatty acids (DP-BFAs) was assayed in vitro in cell cultures that include normal and malignant cell types. The following cell systems were used: • Primary fibroblasts (human) • Normal bone marrow (BM) cells (mouse) • Primary bronchial epithelial cells (human, from Clonetics, cat. no. CC-2541) • Caco-2—colon cancer cell line (human, ATTC, HTB-37) • C6 glioma cell line (rat, ATCC, CRL-2199) • Neuro2a—neuroblastoma cell line (mouse, ATCC, CCL-131) • SKBR-3—breast cancer cell line (human, ATTC, HTB-30) • HL60—myeloid leukemia cell line (human, ATCC, CCL-240) • U937—myeloid leukemia cell line (human)
Cells were seeded in a microtiter plate in MEM containing 2 mM L-glutamine, 100 units/ml penicillin, 100 ug/ml streptomycin and 10% FCS at 37° C. The cultured cells were incubated, during their linear growth phase in the absence (control group) or presence of various DP-BFAs as indicated. The final concentrations of the tested DP-BFAs ranged from 1.5 to 200 microMolars. At the end of the incubation period, which was five days for the bone marrow cells and three days for all the other cell lines, the cytotoxic effect of the added P-BFA on the cells was estimated by using the colorimetric MTT assay. The MTT assay (Mosmann (1983) J. Immunol Methods 65: 55–63) measures mitochondrial reductase activity and serves for quantitative assessment of cellular viability. Drug concentration that causes 50% reduction in cell viability in comparison to the control group, is defined as EC50. The EC50 values of the tested DP-BFA compounds were calculated from dose response curves established for each of the different assayed cell lines.
Each EC50 value is an average of EC50 values derived from 1–5 independent experiments.

For data set [3], the system named is Chinese hamster ovary (CHO) AA8 cell line. Description: LDH release toxicity assay in cultured CHO AA8 cells. In kind it is cell-based. Conditions: 1 hour incubation, read-out: LC50 (the source's name). The protocol: Various DP-BFA molecules were screened in cultured Chinese hamster ovary (CHO) AA8 cell line in order to establish their toxicity. LC50 values, i.e. the concentrations causing death in 50% of cell population, were calculated from dose response curves. LC50 values of phospho-BFAs were compared to those of the corresponding branched fatty acids (=carbo-BFAs).
Lactate dehydrogenase (LDH) release was used as an assay for the integrity of the cells membrane and, thus, for estimation of toxicity. Cells (2×10^5/ml) were seeded (150 μl/well) in 96 well plates, in RPMI-1640 medium containing 10% FCS. After two days, tested DP-BFA compounds or the control compound myristic acid were added to the plates in declining concentrations ranging from 500 to 1 μg/ml. Cells were harvested after one hour. […] Other controls included, two blank wells and five wells containing cells with no additional drugs. Following centrifugation (1500 rpm, 5 min), 75 μl of the supernatant was transferred to a new plate with 45 μl of an LDH assay mix (Tox-7 kit, Sigma). After 10–20 minutes at room temperature, absorbance was measured using an Elisa Reader 490 nm.
Each experiment was performed in triplicate.
(LDH in the medium is a marker of cell lysis.)

pEC50: −log10 of the molar value. Where two headings read alike, the source gives them in different places.

With “2-(4′-Hexadecanoyloxy)ethoxyethyl phosphate [3,12-DEG-PO4]”, the “anti-tumor effect, invasiveness and rate of growth (in words)” value in the data set with C6 glioma tumor (rat, in vivo) was “significant anti-tumor effect”. In the data set with C6 glioma tumor (single dose 5 to 20 μM, 72 h post inoculation, vehicle 8.1±2.2), this compound gave a Tumor volume of 1.6±0.2 mm^3. Also, in data set [1], the “Evans Blue staining of tumor and non-tumor brain (FIG. 2, in words)” value was “only in the tumor tissue in the ipsilateral hemisphere”.
With `CCCCCCCCCCCCC(CCC)C(=O)OCCOP(=O)([O-])OCC[N+](C)(C)C` (stereo not shown) [3,12-MEG-PC, 2-(2′-Propyltetradecanoyloxy)ethylphosphocholine], the “D1/2 (duration of at least 50% opening of the BBB)” value in data set [2] is “around 120 min”.
The same measure, in the same setting: the same measure for `CCCCCCCCCCCCC(CCC)OP(=O)([O-])OCC[N+](C)(C)C` (stereo not shown) [3,12-PC, 4-Hexadecanyl phosphocholine]: “around 120 min”.
As for `CCCCCCCCCCCCC(CCC)C(=O)OCCOCCOP(=O)([O-])[O-].[Na+].[Na+]` (stereo not shown) [3,12-DEG-PO4Na2, 2-[2′-(2″-Propyltetradecanoyloxy)-ethoxy]ethyl Disodium Phosphate], the pEC50 in the data set with C6 glioma cell line was 4.42. Besides, the CC50 in data set [3] came to 320 µM.
As to `CCCCCCCCCCCCC(CCC)C(=O)OCCOCCOP(=O)([O-])OCC[N+](C)(C)C` (stereo not shown) [3,12-DEG-PC, 2-(2′-Propyltetradecanoyloxy)ethoxyethylphosphocholine], in the data set on C6 glioma cell line (Rattus norvegicus, 72 h), the pEC50 was 4.02.
Turning to `CCCCCCCCCCCCC(CCC)C(=O)[O-].[Na+]` (stereo not shown) [3,12-Na, reference compound], the CC50 in data set [3] was 165 µM. For the same compound, in data set [1], the “Evans Blue staining of tumor and non-tumor brain (FIG. 2, in words)” value was “equally permeabilized tumor and non-tumor brain tissues”.

One may read the pEC50 as the EC50 on a negative log10 scale, so that one unit is a factor of ten.
